Where two headings read alike, the source gives them in different places. Where only a bound is given, the exact number is not on record here.

Test [1] has as its system EV71 clinical isolate (EV71 FY 573). Description: EV71 clinical isolate replication in RD cells, viral load by quantitative RT-PCR. The test is classed as cell-based, Enterovirus 71. On the procedure:
RD cells were infected with EV71 clinical isolate (EV71 FY 573) in different E02 concentrations, at the MOI (multiplicity of infection) of 0.1. At 46 h post infection, viral RNA in culture supernatant was extracted, and the relative EV71 viral load was determined by quantitative RT-PCR. Procedures are detailed as follows:
(1) Cell seeding: 24 h prior to infection, RD cells were seeded in 96-well cell culture plates, 5×10^4 cells per well.
(2) Infection: • a. Virus pre-incubated with drug: virus stock solution was diluted to 5×10^4 TCID50/ml with DMEM and dispensed to 96-well plates at 100 μl per well, and 11 μl of E02 dissolved in DMEM at corresponding concentration or DMEM was added, and incubated at 37° C. for 1 h; • b. Cells pre-incubated with drug: cell culture medium was removed from 96-well plates, each well was added 100 μl of DMEM, then added 11 μl of E02 solution at corresponding concentration or DMEM, and incubated at 37° C. for 1 h; • c. After 1 h incubation, drug was discarded from cell culture plates, 111 μl of virus pre-incubated with drug was transferred to cell culture plates, and incubated at 37° C. for 1 h; • d. After incubation, the supernatant was discarded, cells were washed twice with 50 μl of DMEM, each well was added 180 μl of DMEM containing 2% FBS, 20 μl of E02 solution at corresponding concentration or DMEM. Cell culture plates were placed in 37° C., 5% (v/v) carbon dioxide incubator for incubation.
(3) Harvesting virus and RNA extraction: after infection, cells were cultured for 46 h, 140 μl of supernatant was transferred to 96-deep well plates, viral RNA extraction was performed using viral RNA extraction kit (QIAGEN QIAamp Viral RNA Mini Kit, cat #52906) according to standard operating procedures of the kit.
(4) Viral load measurements: EV71 5′UTR gene was detected using ABI Taqman one-step RT-PCR kit (ABI TaqMan® One-Step RT-PCR, cat #4309169) of ABI 7900HT 384-well plates PCR system. EV71 5′UTR quantitative RT-PCR thermal cycling program (Taqman);
(5) PCR CT values were converted to viral load using PCR standard curves (standard curves were obtained by CT values determined by performing RT-PCR on RNA extracted from viruses serially diluted with defined titers at 10-fold).

Test [2] concerns EV71 clinical isolate SH-TS. Briefly: EV71 SH-TS replication in RD cells, quantitative RT-PCR. The class given is cell-based, Enterovirus 71. The conditions noted are these: MOI 0.1, 46 h. On the procedure: RD cells were infected with EV71 SH-TS or SH-RS at different E02 concentrations, at the MOI of 0.1. After cultured for 46 h, viral RNA in culture supernatant was extracted. Relative EV71 viral load was determined by quantitative RT-PCR. See Example 1 for specific procedures of quantitative RT-PCR.

A further test deals with T1, P2X3 receptor (Homo sapiens, UniProt P56373).
T1 sequence (P56373 1-397): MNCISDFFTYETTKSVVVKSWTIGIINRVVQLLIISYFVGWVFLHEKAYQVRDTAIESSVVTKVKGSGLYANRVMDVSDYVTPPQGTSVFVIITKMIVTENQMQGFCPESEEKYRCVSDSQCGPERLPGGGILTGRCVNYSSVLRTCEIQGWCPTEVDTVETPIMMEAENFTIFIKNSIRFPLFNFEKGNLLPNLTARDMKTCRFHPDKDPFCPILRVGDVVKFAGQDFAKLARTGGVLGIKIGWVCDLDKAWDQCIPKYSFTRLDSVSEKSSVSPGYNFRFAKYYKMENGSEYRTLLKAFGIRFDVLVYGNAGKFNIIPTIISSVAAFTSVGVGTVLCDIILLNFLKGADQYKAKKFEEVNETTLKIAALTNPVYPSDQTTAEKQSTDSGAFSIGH
To be noted: Table 8, antagonists; cited from earlier work.

A further test addresses T2, P2X1 receptor (Homo sapiens, UniProt P51575).
T2 sequence (P51575 1-399): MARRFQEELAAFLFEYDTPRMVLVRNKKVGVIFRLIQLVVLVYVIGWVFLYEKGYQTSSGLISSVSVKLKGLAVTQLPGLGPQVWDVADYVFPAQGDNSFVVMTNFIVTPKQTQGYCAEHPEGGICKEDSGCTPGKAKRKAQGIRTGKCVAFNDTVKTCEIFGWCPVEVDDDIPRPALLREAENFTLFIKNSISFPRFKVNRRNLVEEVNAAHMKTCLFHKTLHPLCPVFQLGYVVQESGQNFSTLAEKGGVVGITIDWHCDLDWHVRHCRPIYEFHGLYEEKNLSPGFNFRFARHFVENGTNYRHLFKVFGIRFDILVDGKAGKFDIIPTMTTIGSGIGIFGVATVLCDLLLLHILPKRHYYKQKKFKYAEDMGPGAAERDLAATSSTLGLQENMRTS
The conditions noted are these: cited from earlier work.

Another test concerns the target T3, P2X4 receptor (Homo sapiens, UniProt Q99571).
T3 sequence (Q99571 1-388): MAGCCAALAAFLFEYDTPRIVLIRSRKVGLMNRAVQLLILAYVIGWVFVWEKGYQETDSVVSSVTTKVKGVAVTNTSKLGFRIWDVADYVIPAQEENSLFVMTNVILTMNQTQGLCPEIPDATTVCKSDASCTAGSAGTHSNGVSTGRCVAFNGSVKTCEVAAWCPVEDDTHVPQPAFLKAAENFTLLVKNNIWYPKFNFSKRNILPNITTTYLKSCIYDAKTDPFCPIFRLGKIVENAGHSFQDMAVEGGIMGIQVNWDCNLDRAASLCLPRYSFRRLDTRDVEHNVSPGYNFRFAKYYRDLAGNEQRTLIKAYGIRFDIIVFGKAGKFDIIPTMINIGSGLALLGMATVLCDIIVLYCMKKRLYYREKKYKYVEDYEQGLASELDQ
The conditions noted are these: Table 8, antagonists; cited from earlier work.

`Cc1ccc(C(=O)Nc2ccc(S(=O)(=O)O)c3cc(S(=O)(=O)O)cc(S(=O)(=O)O)c23)cc1NC(=O)c1cccc(NC(=O)Nc2cccc(C(=O)Nc3cc(C(=O)Nc4ccc(S(=O)(=O)O)c5cc(S(=O)(=O)O)cc(S(=O)(=O)O)c45)ccc3C)c2)c1` [E02, Suramin Sodium]: in test [1] (EV71 FY 573, RD cells, 46 h), the “concentration at which EV71 replication is reduced 10-fold” value is recorded as 3.44 μM, the “concentration at which EV71 replication is reduced 100-fold” value was found to be 5.19 µM, the “concentration at which EV71 replication is reduced 1,000-fold” value amounted to 6.45 µM and the “concentration at which EV71 replication is reduced 10,000-fold” value amounted to 7.63 µM. Also, the EC50 in test [1] (Enterovirus A, EV71, RD, 46 h, read-out: EC50 (50% effective concentration) for inhibiting EV71 replication in RD cells) came to 6.93 µM. For the same compound, the EC50 in test [1] (Enterovirus A, EV71, RD cells, summary over RT-PCR, TCID50 and PFU tests, read-out: EC50 that inhibits EV71 clinical isolate (summary of Examples 1-3)) is < 6.93 µM. Besides, in test [2], the “concentration reducing EV71 replication by 10-fold” value is reported as 7.14 μM and the “concentration reducing EV71 replication by 100-fold” value is 25.35 µM. Further, the “P2X receptors 3” value on P2X3 receptor is given as “+ (+: inhibitory concentration >300 nM)”. In addition, the “P2X receptors 1” value on P2X1 receptor is given as “++ (key: −: no activity; +: inhibitory concentration >300 nM; ++: inhibitory concentration = 10~300 nM; +++: inhibitory concentration <10 nM)”. Also, the “P2X receptors 4” value on P2X4 receptor was “−”.

Turning to `Cc1nc(N=Nc2ccc(S(=O)(=O)O)cc2S(=O)(=O)O)c(COP(=O)(O)O)c(C=O)c1O` [PPADS, pyridoxal-phosphate-6-azophenyl-2′, 4′-disulphonic acid], the EC50 in test [1] (EV71 FY 573, MOI 0.1, 46 h, viral RNA in supernatant, read-out: EC50 (50% effective concentration) for inhibiting EV71 replication in RD cells) was 18.9 µM. Moreover, at P2X3 receptor, the “P2X receptors 3” value is reported as “++ (++: inhibitory concentration = 10~300 nM)”. Further, the “P2X receptors 1” value at P2X1 receptor (Table 8, antagonists) is given as “++ (++: inhibitory concentration = 10~300 nM)”. Also, the “P2X receptors 4” value at P2X4 receptor is reported as “−”.

The values above are taken from patent US9872875B2, “Component and method for treating viral disease” (Institut Pasteur of Shanghai, Chinese Academy of Sciences, priority 2012, dated 2018).
